The source of these data is US11793845B2, “Composition for ameliorating peripheral sensory neuropathy” (KINKI UNIVERSITY, priority 2016, dated 2023).

For test [1], the system named is Peripheral Sensory Neuropathy Induced by Vincristine in Mice. The experiment in a line: von Frey test, vincristine-induced peripheral sensory neuropathy. In kind it is in vivo. The note with it: duloxetine 30 mg/kg daily. The source says:
The mice in the three groups in the above (1) were put in a cage and a filament having a strength of 0.16 g was pressed on the plantar surface of the leg to measure the number of times (a score) of avoidance response.
In the present test, the mice were divided into three groups by a difference in test objects. As in Example 1, male Balb/c mice of 6 to 7 weeks old were used. The mice were divided into a total of three groups, a control group, a vincristine administration group, and a vincristine and Lentinus edodes mycelium extract administration group (vincristine+Lentinus edodes mycelium extract administration group).
(§1) Vincristine was administered to each mouse once a day at a dose of 0.2 mg/kg. Further, the Lentinus edodes mycelium extract was administered to each mouse once a day at a dose of 2 g/kg.
Further, the number of times of administration was set to once a week (on Day 0, Day 7, and Day 14) for vincristine and daily (from Day 0 to Day 15) for the Lentinus edodes mycelium extract in both the von Frey test and the cold plate test below.
Evaluation was performed in the same manner as in the test with oxaliplatin in Example 1. Referring to FIG. 5, the horizontal axis indicates an elapsed time after administration (days) and the vertical axis indicates the avoidance response (scores). Open circles with a solid line represent the control group. Filled circles with a solid line represent the group in which only vincristine was administered. Open squares with a dash line represent the group in which vincristine and the Lentinus edodes mycelium extract were administered at the same time (vincristine+Lentinus edodes mycelium extract administration group). When the difference with the control group was determined to be significant using a significance level of 5%, the data were marked by “*”.
(§2) In the present test, the mice were divided into six groups by a difference in test objects. As in Example 1, male Balb/c mice of 6 to 7 weeks old were used. […]

For test [2] the test system is unchanged. The test is described as follows: cold plate test, vincristine-induced peripheral sensory neuropathy. In kind it is in vivo. As to conditions: duloxetine 30 mg/kg daily. How it is done:
The effect of the Lentinus edodes mycelium extract on the paresthesia to cold stimulation was tested by performing the cold plate test. The mice in the three groups in the above (1) were put on a cold plate set to 10° C. and a response time for avoidance (a latency) was measured. The shorter latency means that the mouse avoids the cold stimulation of the cold plate more.
In the present test, the mice were divided into three groups by a difference in test objects. As in Example 1, male Balb/c mice of 6 to 7 weeks old were used. The mice were divided into a total of three groups, a control group, a vincristine
administration group, and a vincristine and Lentinus edodes mycelium extract administration group (vincristine+Lentinus edodes mycelium extract administration group).
as §1
Evaluation was performed in the same manner as in the test with oxaliplatin in Example 1. Referring to FIG. 6, the horizontal axis indicates the elapsed time after administration (days) and the vertical axis indicates the avoidance response time (seconds). Open circles with a solid line represent the control group. Filled circles with a solid line represent the group in which only vincristine was administered. Open squares with a dash line represent the group in which vincristine and the Lentinus edodes mycelium extract were administered at the same time (vincristine+Lentinus edodes mycelium extract administration group). When the difference with the control group was determined to be significant using a significance level of 5%, the data were marked by “*”.
as §2

Setting [3] is: 3-day delayed after vincristine.
Setting [4] is: 6-day delayed after vincristine.

Take `CNCC[C@H](Oc1cccc2ccccc12)c1cccs1` [duloxetine]: the “avoidance score compared with vincristine administration group, von Frey test” value in test [1] (setting [3]) was “almost the same score as that in the vincristine administration group”. The “avoidance score, von Frey test” value in test [1] (setting [4]) is given as “same tendency as that in the duloxetine 3-day delayed administration group”. The “latency compared with vincristine administration group, cold plate test” value in test [2] (setting [3]) is on record as “almost the same as that in the vincristine administration group”. Also, the “latency, cold plate test” value in test [2] (setting [4]) is reported as “same tendency as that in the duloxetine 3-day delayed administration group”.
